In article PMC10141580, “Cyclic Dichalcogenides Extend the Reach of Bioreductive Prodrugs to Harness Thiol/Disulfide Oxidoreductases: Applications to seco-Duocarmycins Targeting the Thioredoxin System” (ACS Central Science, 2023):
Where two headings read alike, the source gives them in different places.

What was measured:
[1] = test system: NCI-60 standardized human tumor cell line panel; test: cells; type: cell-based
A549 cells = test: Resazurin cytotoxicity assay, A549, 72 h; conditions: read-out: IC50(nM): A549
Procedure: We used A549 lung cancer and HeLa cervical cancer cell lines for initial screening of the prodrugs.
Fi gure S9: Cell ular resazurin-based cytotoxi ci ty as s a y.
Dose -response curves were calculated from at least 27 incremental single concentrations over a range
of at least three log units. Individual experiments with annotated experiment numbers are shown for each prodrug

mouse = test: Tolerability for repeated dose administration in vivo (summary)
[2] = cell line A549/ATCC (LC:A549/ATCC), TMI sheet
[3] = cell line BT-549 (BR:BT-549), TMI sheet
[4] = cell line CCRF-CEM (LE:CCRF-CEM), TMI sheet
[5] = cell line COLO 205 (CO:COLO 205), TMI sheet
[6] = cell line EKVX (LC:EKVX), TMI sheet
[7] = cell line HCC-2998 (CO:HCC-2998), TMI sheet
[8] = cell line HCT-15 (CO:HCT-15), TMI sheet
[9] = cell line HCT-116 (CO:HCT-116), TMI sheet
[10] = cell line HL-60(TB) (LE:HL-60(TB)), TMI sheet
[11] = cell line HOP-62 (LC:HOP-62), TMI sheet
[12] = cell line HOP-92 (LC:HOP-92), TMI sheet
[13] = cell line HT29 (CO:HT29), TMI sheet
[14] = cell line K-562 (LE:K-562), TMI sheet
[15] = cell line KM12 (CO:KM12), TMI sheet
[16] = cell line LOX IMVI (ME:LOX IMVI), TMI sheet
[17] = cell line M14 (ME:M14), TMI sheet
[18] = cell line MALME-3M (ME:MALME-3M), TMI sheet
[19] = cell line MCF7 (BR:MCF7), TMI sheet
[20] = cell line MDA-MB-435 (ME:MDA-MB-435), TMI sheet
[21] = cell line MOLT-4 (LE:MOLT-4), TMI sheet
[22] = cell line NCI-H23 (LC:NCI-H23), TMI sheet
[23] = cell line NCI-H226 (LC:NCI-H226), TMI sheet
[24] = cell line RPMI-8226 (LE:RPMI-8226), TMI sheet
[25] = cell line SF-539 (CNS:SF-539), TMI sheet
[26] = cell line SK-MEL-5 (ME:SK-MEL-5), TMI sheet
[27] = cell line SK-MEL-28 (ME:SK-MEL-28), TMI sheet
[28] = cell line SNB-19 (CNS:SNB-19), TMI sheet
[29] = cell line SR (LE:SR), TMI sheet
[30] = cell line SW-620 (CO:SW-620), TMI sheet
[31] = cell line T-47D (BR:T-47D), TMI sheet
[32] = cell line U251 (CNS:U251), TMI sheet
[33] = cell line UACC-62 (ME:UACC-62), TMI sheet
[34] = cell line UACC-257 (ME:UACC-257), TMI sheet

With COc1cc2cc(C(=O)N3CC(CCl)c4c3cc(OC(=O)N3CCN(C)C5CSSCC53)c3ccccc43)[nH]c2c(OC)c1OC (mixture of isomers) [Me-SS66C-CBI-TMI] the GI50 ([1]; UACC-257, read-out: GI50) was 500 nM, the “NCI-60 screening: Log(GI50)” value [1, 2] was -6.74 and the “NCI-60 screening: Log(RedIndex)” value [1, 2] was 1.04. For the same molecule, the “NCI-60 screening: Log(GI50)” value [1, 3] was -6.78, the “NCI-60 screening: Log(RedIndex)” value [1, 3] was 0.98 and the GI50 ([1]; cell line BT-549 (BR:BT-549), TMI sheet, read-out: NCI-60 screening: Raw GI50) was 170 nM. The “NCI-60 screening: Log(GI50)” value [1, 4] was -6.98, the “NCI-60 screening: Log(RedIndex)” value [1, 4] was 0.98 and the “NCI-60 screening: Log(GI50)” value [1, 5] was -6.48. The “NCI-60 screening: Log(RedIndex)” value [1, 5] was 0.62, the “NCI-60 screening: Log(GI50)” value [1, 6] was -6.64 and the “NCI-60 screening: Log(RedIndex)” value [1, 6] was 0.93. For the same molecule, the GI50 ([1]; cell line EKVX (LC:EKVX), TMI sheet, read-out: NCI-60 screening: Raw GI50) was 230 nM, the “NCI-60 screening: Log(GI50)” value [1, 7] was -6.84 and the “NCI-60 screening: Log(RedIndex)” value [1, 7] was 1.02. The GI50 ([1]; cell line HCC-2998 (CO:HCC-2998), TMI sheet, read-out: NCI-60 screening: Raw GI50) was 140 nM, the “NCI-60 screening: Log(GI50)” value [1, 8] was -6.61 and the “NCI-60 screening: Log(RedIndex)” value [1, 8] was 0.85. For the same molecule, the GI50 ([1]; cell line HCT-15 (CO:HCT-15), TMI sheet, read-out: NCI-60 screening: Raw GI50) was 250 nM, the “NCI-60 screening: Log(GI50)” value [1, 9] was -6.73 and the “NCI-60 screening: Log(RedIndex)” value [1, 9] was 0.9. The “NCI-60 screening: Log(GI50)” value [1, 10] was -7.28, the “NCI-60 screening: Log(RedIndex)” value [1, 10] was 1.16 and the “NCI-60 screening: Log(GI50)” value [1, 11] was -6.69. The “NCI-60 screening: Log(RedIndex)” value [1, 11] was 0.46, the GI50 ([1]; cell line HOP-62 (LC:HOP-62), TMI sheet, read-out: NCI-60 screening: Raw GI50) was 200 nM and the “NCI-60 screening: Log(GI50)” value [1, 12] was -6.62. The “NCI-60 screening: Log(RedIndex)” value [1, 12] was 1.02, the GI50 ([1]; cell line HOP-92 (LC:HOP-92), TMI sheet, read-out: NCI-60 screening: Raw GI50) was 240 nM and the “NCI-60 screening: Log(GI50)” value [1, 13] was -6.65. For the same molecule, the “NCI-60 screening: Log(RedIndex)” value [1, 13] was 0.83, the GI50 ([1]; cell line HT29 (CO:HT29), TMI sheet, read-out: NCI-60 screening: Raw GI50) was 230 nM and the “NCI-60 screening: Log(GI50)” value [1, 14] was -6.4. The “NCI-60 screening: Log(RedIndex)” value [1, 14] was 0.23, the “NCI-60 screening: Log(GI50)” value [1, 15] was -5.96 and the “NCI-60 screening: Log(RedIndex)” value [1, 15] was 0.27. The “NCI-60 screening: Log(GI50)” value [1, 16] was -6.78, the “NCI-60 screening: Log(RedIndex)” value [1, 16] was 0.82 and the GI50 ([1]; cell line LOX IMVI (ME:LOX IMVI), TMI sheet, read-out: NCI-60 screening: Raw GI50) was 170 nM. For the same molecule, the “NCI-60 screening: Log(GI50)” value [1, 17] was -6.6, the “NCI-60 screening: Log(RedIndex)” value [1, 17] was 0.78 and the GI50 ([1]; cell line M14 (ME:M14), TMI sheet, read-out: NCI-60 screening: Raw GI50) was 250 nM. The “NCI-60 screening: Log(GI50)” value [1, 18] was -6.67, the “NCI-60 screening: Log(RedIndex)” value [1, 18] was 0.87 and the “NCI-60 screening: Log(GI50)” value [1, 19] was -7.55. The “NCI-60 screening: Log(RedIndex)” value [1, 19] was 1.05, the GI50 ([1]; cell line MCF7 (BR:MCF7), TMI sheet, read-out: NCI-60 screening: Raw GI50) was 28 nM and the “NCI-60 screening: Log(GI50)” value [1, 20] was -6.08. The “NCI-60 screening: Log(RedIndex)” value [1, 20] was 0.33, the “NCI-60 screening: Log(GI50)” value [1, 21] was -7.16 and the “NCI-60 screening: Log(RedIndex)” value [1, 21] was 0.93. For the same molecule, the “NCI-60 screening: Log(GI50)” value [1, 22] was -7.34, the “NCI-60 screening: Log(RedIndex)” value [1, 22] was 1.02 and the “NCI-60 screening: Log(GI50)” value [1, 23] was -5.99. The “NCI-60 screening: Log(RedIndex)” value [1, 23] was 0.15, the “NCI-60 screening: Log(GI50)” value [1, 24] was -6.79 and the “NCI-60 screening: Log(RedIndex)” value [1, 24] was 0.96. The GI50 ([1]; cell line RPMI-8226 (LE:RPMI-8226), TMI sheet, read-out: NCI-60 screening: Raw GI50) was 160 nM, the “NCI-60 screening: Log(GI50)” value ([1]; cell line SF-268 (CNS:SF-268), TMI sheet) was -6.76 and the GI50 ([1]; cell line SF-268 (CNS:SF-268), TMI sheet, read-out: NCI-60 screening: Raw GI50) was 170 nM. For the same molecule, the “NCI-60 screening: Log(GI50)” value ([1]; cell line SF-295 (CNS:SF-295), TMI sheet) was -6.88, the GI50 ([1]; cell line SF-295 (CNS:SF-295), TMI sheet, read-out: NCI-60 screening: Raw GI50) was 130 nM and the “NCI-60 screening: Log(GI50)” value [1, 25] was -6.76. For the same molecule, the “NCI-60 screening: Log(RedIndex)” value [1, 25] was 0.88, the GI50 ([1]; cell line SF-539 (CNS:SF-539), TMI sheet, read-out: NCI-60 screening: Raw GI50) was 170 nM and the “NCI-60 screening: Log(GI50)” value [1, 26] was -6.78. For the same molecule, the “NCI-60 screening: Log(RedIndex)” value [1, 26] was 0.99, the GI50 ([1]; cell line SK-MEL-5 (ME:SK-MEL-5), TMI sheet, read-out: NCI-60 screening: Raw GI50) was 170 nM and the “NCI-60 screening: Log(GI50)” value [1, 27] was -6.58. For the same molecule, the “NCI-60 screening: Log(RedIndex)” value [1, 27] was 1.14, the GI50 ([1]; cell line SK-MEL-28 (ME:SK-MEL-28), TMI sheet, read-out: NCI-60 screening: Raw GI50) was 260 nM and the “NCI-60 screening: Log(GI50)” value [1, 28] was -6.65. The “NCI-60 screening: Log(RedIndex)” value [1, 28] was 1, the “NCI-60 screening: Log(GI50)” value [1, 29] was -7.43 and the “NCI-60 screening: Log(RedIndex)” value [1, 29] was 0.87. The “NCI-60 screening: Log(GI50)” value [1, 30] was -6.58, the “NCI-60 screening: Log(RedIndex)” value [1, 30] was 0.85 and the GI50 ([1]; cell line SW-620 (CO:SW-620), TMI sheet, read-out: NCI-60 screening: Raw GI50) was 260 nM. The “NCI-60 screening: Log(GI50)” value [1, 31] was -6.54, the “NCI-60 screening: Log(RedIndex)” value [1, 31] was 0.82 and the “NCI-60 screening: Log(GI50)” value [1, 32] was -6.86. The “NCI-60 screening: Log(RedIndex)” value [1, 32] was 1.04, the GI50 ([1]; cell line U251 (CNS:U251), TMI sheet, read-out: NCI-60 screening: Raw GI50) was 140 nM and the “NCI-60 screening: Log(GI50)” value [1, 33] was -6.83. For the same molecule, the “NCI-60 screening: Log(RedIndex)” value [1, 33] was 1.02, the GI50 ([1]; cell line UACC-62 (ME:UACC-62), TMI sheet, read-out: NCI-60 screening: Raw GI50) was 150 nM and the “NCI-60 screening: Log(GI50)” value [1, 34] was -6.3. The “NCI-60 screening: Log(RedIndex)” value [1, 34] was 0.6, the mean reductive index ([1]; mean over NCI cell lines, vs P-CC60) was “ca. 7” and the GI50 ([1]; read-out: NCI-60 screening: Raw GI50) was 240 nM. The IC50 (A549 cells) was 17 nM, the remarks (mouse; repeated dose administration) was “well tolerated” and the “well-tolerated dose” value (mouse; weekly or twice-weekly administration) was 3 mg/kg.
